From patent publication EP2093288A1, “NOVEL DIPEPTIDE-DIGESTING ENZYME, METHOD OF PRODUCING THE SAME, METHOD OF ASSAYING GLYCATED PROTEIN BY USING THE DIPEPTIDE-DIGESTING ENZYME AND REAGENT COMPOSITION TO BE USED THEREIN” (Amano Enzyme Inc., priority 2006, dated 2008)
Where two headings read alike, the source gives them in different places. Non-standard residues stand in square brackets, D forms with d. Residues, ends and D or L forms follow the SMILES beside them. *: point of attachment. Sta = CC(C)C[C@H](N)[C@@H](O)CC(=O)O; Isovaleryl = CC(C)CC(=O)*

Experiments:
Assay type in all cases: biochemical, Sphingopyxis chilensis No. 0522
[1] = tested on: dipeptide-degrading enzyme; assay: Influence of metal ions and the like on enzymatic activity (dipeptide-degrading activity, Example 3 method)
Protocol: (§1) The dipeptide-degrading activity may be measured by quantifying Fru-Val or histidine formed upon the degradation of Fru-Val-His. The method for quantifying histidine is described below. The amount of enzyme degrading 1 µmol of Fru-Val-His in 1 minute is defined as 1 unit of enzymatic activity (U). The reagents (1), (2), and (3), and a substrate solution used for measuring the activity were prepared as described below.
(§2) Substrate solution: Fru-Val-His (Peptide Institute Inc.) was dissolved in 100 mM of a MOPS buffer (pH 7.0), thus obtaining 40 mM of substrate solution.
0.02 mL of 1.40 mM substrate solution and 0.16 mL of the reagent (1) were accurately dispensed and mixed, and preincubated at 37°C for 5 minutes. Thereafter, 0.02 mL of enzyme solution was accurately added to and mixed with the mixture, and allowed to react at 37°C. As a blank test, 0.02 mL of the reagent (1) was added in place of the enzyme solution. After a lapse of 10 minutes, 0.8 mL of the reagent (3) was accurately added to and mixed with the mixture, and allowed to react at 37°C. After a lapse of 15 minutes, the absorbance at 505 nm was measured, and the dipeptide-degrading activity was calculated according to the calculation formula described below. The enzyme solution was appropriately diluted with the reagent (1) such that ΔABS = (As-Ab) ≤ 0.50 Abs, and used as the sample. The symbols and numerical values in the calculation formula represents the followings. • As: absorbance of enzyme solution • Ab: absorbance of blank solution • ΔABS: As - Ab • 12.88: millimole absorptivity (mmol/L/cm) of quinone pigment at 505 nm • 10: reaction time (min) • 2: coefficient representing that one molecule of quinone pigment is formed from two molecules of H2O2 • 1: light path length (cm) • 1.0: total amount of reaction solution (mL) • 0.02: Amount of enzyme solution used for reaction (mL) • n: enzyme solution dilution ratio
Calculation formula Activity(U/mL) = ΔABS/10/12.88 × 2 × 1 × 1.0/0.02 × n [formula]
The enzymatic activity was measured in the same manner as Example 3, except that the reagent (1) was replaced with various metals and the like at specified concentrations (Table 2) and a 100 mM PIPES buffer (pH 6.2) containing 0.1% Triton X-100.

[2] = tested on: dipeptide-degrading enzyme; assay: Substrate specificity: dipeptide-degrading activity measurement of Example 3 with changed substrate; details: substrate changed from Fru-Val-His; 37°C, pH 6.2
Protocol: as §1, §2
0.02 mL of 1.40 mM substrate solution and 0.16 mL of the reagent (1) were accurately dispensed and mixed, and preincubated at 37°C for 5 minutes. Thereafter, 0.02 mL of enzyme solution was accurately added to and mixed with the mixture, and allowed to react at 37°C. As a blank test, 0.02 mL of the reagent (1) was added in place of the enzyme solution. After a lapse of 10 minutes, 0.8 mL of the reagent (3) was accurately added to and mixed with the mixture, and allowed to react at 37°C. After a lapse of 15 minutes, the absorbance at 505 nm was measured, and the dipeptide-degrading activity was calculated according to the calculation formula described below. The enzyme solution was appropriately diluted with the reagent (1) such that ΔABS = (As-Ab) ≤ 0.50 Abs, and used as the sample. […]

[3] = tested on: dipeptide-degrading enzyme; assay: Reactivity in actual measurement system for glycosylated dipeptide (Example 15 method, reagents E, B, C, absorbance at 555 nm)
Protocol: A glycosylated dipeptide was measured using a glycosylated hemoglobin β chain dipeptide Fru-Val-His (Peptide Institute Inc.). The reagents B and C were prepared according to the following recipes, and used for the study. Since the specimen was a glycosylated dipeptide, no protease was necessary. Therefore, the reagent E used herein had the same composition with the reagent A except that no protease was used. However, the glycosylated dipeptide may be quantified only with the reagents B and C without using the reagent E. The dipeptide-degrading enzyme used herein is the purified enzyme obtained in Example 6.
40 mM Fru-Val-His was prepared, and diluted with a 100 mM MOPS buffer (pH 7.0), thus making 0.1, 0.2, 0.4, 0.6, and 0.8 mM Fru-Val-His solutions. To 0.01 mL each of the diluting solutions, 0.04 mL of the reagent E was added, and allowed to react at 37°C for 5 minutes. 0.1 mL of the reagent B was added to each of the reaction liquids, and allowed to react at 37°C for 10 minutes. Thereafter, 0.9 mL of the reagent C was added to each of the reaction liquids, and allowed to react at 37°C. The absorbance at 555 nm was measured, and the increase (ΔOD) of the absorbance 5 minutes after initiation of the reaction was determined. […]

[4] = Conc. 2mM, 100 mM PIPES buffer (pH 6.2), 0.1% Triton X-100, None = 100
[5] = Conc. 1mM, 100 mM PIPES buffer (pH 6.2), 0.1% Triton X-100, None = 100
[6] = Conc. 50mM, 100 mM PIPES buffer (pH 6.2), 0.1% Triton X-100, None = 100

| Compound | Relative activity (%) [1, 4] [%] | Relative activity (%) [1, 5] [%] | other results |
| --- | --- | --- | --- |
| c1cnc2c(c1)ccc1cccnc12 [o-Phenanthroline] | 0 | – | – |
| [Ca+2].[Cl-].[Cl-] [CaCl2] | – | 162 | – |
| [Cl-].[Cl-].[Mg+2] [MgCl2] | – | 261 | influences of the metal ions and the like on the enzymatic activity ([1]; summary in words of Table 2): activated |
| O=S(=O)(F)Cc1ccccc1 [PMSF] | 97 | – | – |
| [Cl][Ni][Cl] [NiCl2] | – | 156 | – |
| [Ba+2].[Cl-].[Cl-] [BaCl2] | – | 105 | – |
| NH4Cl | – | – | Relative activity (%) [1, 6]: 85% |
| [Cl][Mn][Cl] [MnCl2] | – | 137 | – |
| KCl | – | – | Relative activity (%) [1, 6]: 97% |
| [Cl-].[Cl-].[Co+2] [CoCl2] | – | 676 | influences of the metal ions and the like on the enzymatic activity ([1]; summary in words of Table 2): activated |
| CC(C)C[C@H](NC(=O)[C@@H](NCC(=O)[C@@H](O)[C@H](O)[C@H](O)CO)C(C)C)C(=O)O [Fru-Val-Leu, fructosyl valyl leucine] | – | – | activity value of the dipeptide-degrading enzyme for the substrate, relative to that for Fru-Val-His [2]: 4.9%; absorbance change converted into the Fru-Val-His concentration ([3]; 0.8 mM substrate, converted using Fig. 7): 0.14 mM; reactivity ([3]; for the 0.8 mM substrate, relative to Fru-Val-His): 18% |
| [Cl][Cu][Cl] [CuCl2] | – | 75 | – |
| O=C(O)CS [Thioglycolic acid] | 3 | – | – |
| NaCl | – | – | Relative activity (%) ([1]; pH 6.2, 50000 µM): 98% |
| OCCS [2-Mercaptoethanol] | 11 | – | – |
| O=C(O)CN(CCN(CC(=O)O)CC(=O)O)CC(=O)O [EDTA] | – | – | influences of the metal ions and the like on the enzymatic activity [1]: deactivated; Relative activity (%) ([1]; pH 6.2, 5000 µM): 1% |
| O=P1([O-])OP(=O)([O-])OP(=O)([O-])OP(=O)([O-])OP(=O)([O-])OP(=O)([O-])O1.[Na+].[Na+].[Na+].[Na+].[Na+].[Na+] [Sodium Hexametaphosphate] | 4 | – | – |
| CCCCCCCCCCCCOS(=O)(=O)O [SDS] | 9 | – | – |
| [Cl-].[Cl-].[Zn+2] [ZnCl2] | – | 257 | influences of the metal ions and the like on the enzymatic activity ([1]; summary in words of Table 2): activated |
| O=C(O)CI [Monoiode acetate] | – | – | Relative activity (%) ([1]; pH 6.2, 2000 µM): 111% |
| c1ccc(-c2ccccn2)nc1 [α, α'-Dipyridyl] | 1 | – | influences of the metal ions and the like on the enzymatic activity ([1]; summary in words of Table 2): deactivated |
| CC(C)CC(=O)N[C@H](C(=O)N[C@H](C(=O)N[C@@H](CC(C)C)[C@@H](O)CC(=O)N[C@@H](C)C(=O)N[C@@H](CC(C)C)[C@@H](O)CC(=O)O)C(C)C)C(C)C [Pepstatin A] (Isovaleryl-VV[Sta]A[Sta]-OH) | – | – | Relative activity (%) ([1]; Conc. 10 µg/ml, 100 mM PIPES buffer (pH 6.2), 0.1% Triton X-100, None = 100): 100% |
